Experimental data reported in patent publication US10137110B2, “1-cyclohexyl-2-phenylaminobenzimidazoles as mIDH1 inhibitors for the treatment of tumors” (Bayer Pharma Aktiengesellschaft, priority 2014, dated 2018).
pIC50: −log10 of the molar value.

How the values were obtained:
[1] = molecular target: mutated isocitrate dehydrogenase (mIDH) protein overexpressed in LN229 R132H cells (Homo sapiens (Human), UniProt O75874, R132H); assay: Mutant IDH1 cellular assay (2-HG in medium of LN229 R132H cells); type: cell-based; details: 24 hours, fluorescence readout
Procedure: Mutant IDH1 Cellular Assay
Levels of (2R)-2-hydroxyglutarate (2HG) were measured in medium of a cell line with overexpression of mutated isocitrate dehydrogenase (mIDH) protein. mIDH catalyzes the NADPH-dependent reduction of alpha-ketoglutarate to 2-HG. Cells (LN229 R132H, Mohrenz et al., Apoptosis (2013) 18:1416-1425) were grown in DMEM containing 10% FCS. They were harvested by trypsin and seeded into 96-well plates. Cells were incubated overnight at 37° C. in 5% CO2. The next day test compounds were added to each cell well. The final concentration of DMSO was 0.1% and DMSO controls were included. The plates were then placed in an incubator for 24 hours.
2-HG was measured according to Balss et al. (Acta Neuropathol (2012) 124: 883-891). Briefly, HClO4 was added to each well and the plates were centrifuged. Aliquots are removed and incubated with hydroxyglutarate dehydrogenase (HGDH), diaphorase, NAD+, and resazurin. The conversion of resazurin to resorufin was detected by fluorescence spectroscopy at Ex 540 nm Em 600 nm. The increase in fluorescence is proportional to 2-HG production. IC50 values are determined by interpolation from plots of relative fluorescence vs inhibitor concentration.

IDH1 R132H enzyme = IDH1 R132H enzyme (Homo sapiens (Human), UniProt O75874, R132H); assay: Mutant IDH1 R132H biochemical assay; details: NADPH consumption, luminescent readout; 1.5 nM enzyme, 250 μM α-KG, 1 μM NADPH, 30 minutes, 32° C.; test range 0.002-10 μM
Procedure: mIDH1 catalyzes the NADPH-dependent reduction of alpha-ketoglutarate (α-KG) to (2R)-2-hydroxyglutarate (2-HG). NADPH consumption was measured by luminescent readout.
The biochemical reactions were performed at 32° C. in 384-well plates using a reaction volume of 41 μl and the following assay buffer conditions: 50 mM Tris pH 7.5, 100 mM NaCl, 20 mM MgCl2, 0.05% BSA, 0.01% Brij, 1 μM NADPH, and 250 μM α-KG. […] Test compounds were used in a concentration range between 0.002 and 10 μM. The final DMSO concentration was 2.4%.
The reaction was incubated for 30 minutes, then 40 μl of detection mix (0.75 μg/ml Luciferase, 0.02 U/ml Oxidoreductase, 4 μg/ml FMN, 2 μl/ml Decanal/Ethanol, 50 mM Tris pH 7.5, 0.5% Glycerin, 0.01% Tween-20, 0.05% BSA) was added. Luminescence was measured on a luminescent reader (10 seconds measuring time, 1 second integration period, 30% sensitivity). The decrease in luminescence is proportional to mIDH1 activity. IC50 values are determined by interpolation from plots of relative luminescence versus inhibitor concentration.

IDH1 R132H enzyme, sequence (O75874 whole entry R132H): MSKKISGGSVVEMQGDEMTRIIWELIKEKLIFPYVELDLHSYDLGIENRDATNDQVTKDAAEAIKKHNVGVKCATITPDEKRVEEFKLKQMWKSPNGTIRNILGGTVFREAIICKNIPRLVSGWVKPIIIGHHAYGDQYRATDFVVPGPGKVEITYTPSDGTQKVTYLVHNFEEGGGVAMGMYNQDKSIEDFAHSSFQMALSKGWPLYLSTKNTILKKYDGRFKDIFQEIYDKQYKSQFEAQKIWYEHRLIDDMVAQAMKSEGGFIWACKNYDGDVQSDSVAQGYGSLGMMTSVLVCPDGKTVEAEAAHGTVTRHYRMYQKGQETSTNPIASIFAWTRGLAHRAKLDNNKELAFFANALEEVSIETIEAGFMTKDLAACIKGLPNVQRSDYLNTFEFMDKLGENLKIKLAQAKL
mutated isocitrate dehydrogenase (mIDH) protein overexpressed in LN229 R132H cells, sequence (O75874 whole entry R132H): as above

| Structure (SMILES) | pIC50 [1] | pIC50 (IDH1 R132H enzyme) |
| --- | --- | --- |
| Cc1noc(C)c1-c1ccc2c(c1)nc(Nc1ccc(OC(F)(F)F)cc1)n2[C@H]1C[C@@H](C)CC(C)(C)C1 (racemic) [Example 2-1, (±) 5-(3,5-dimethyl-1,2-oxazol-4-yl)-N-[4-(trifluoromethoxy)phenyl]-1-[(cis)-3,3,5-trimethylcyclohexyl]-1H-benzimidazol-2-amine] | 6.05 | 6.92 |
| Cc1noc(C)c1-c1ccc2c(c1)nc(Nc1ccc(SC(F)(F)F)cc1)n2[C@H]1C[C@@H](C)CC(C)(C)C1 (stereo in doubt) [Example 2-21-2] | 5.60 | 6.54 |
| C[C@@H]1C[C@H](n2c(Nc3ccc(OC(F)(F)F)cc3)nc3cc(-c4cccc(C(=O)O)c4)ccc32)CC(C)(C)C1 (racemic) [Example 2-2, (±) 3-(2-{[4-(trifluoromethoxy)phenyl]amino}-1-[(cis)-3,3,5-trimethylcyclohexyl]-1H-benzimidazol-5-yl)benzoic acid] | 6.44 | 7.15 |
| Cc1cc(-c2ccc3c(c2)nc(Nc2ccc(OC(F)(F)F)cc2)n3[C@@H]2C[C@H](C)CC(C)(C)C2)n(C)n1 (stereo in doubt) [Example 2-12] | 5.10 | 7.00 |
| C[C@H]1C[C@@H](n2c(Nc3ccc(OC(F)(F)F)cc3)nc3cc(-c4cnoc4)ccc32)CC(C)(C)C1 (stereo in doubt) [Example 2-9] | 5.70 | 6.74 |
| Cc1nn(C)c(C)c1-c1ccc2c(c1)nc(Nc1ccc(OC(F)(F)F)cc1)n2[C@@H]1C[C@H](C)CC(C)(C)C1 (stereo in doubt) [Example 2-19] | 5.00 | 5.72 |
| Cc1noc(C)c1-c1ccc2c(c1)nc(Nc1ccc(SC(F)(F)F)cc1)n2[C@@H]1C[C@H](C)CC(C)(C)C1 (stereo in doubt) [Example 2-21-1] | 5.00 | 5.96 |
| Cc1n[nH]cc1-c1ccc2c(c1)nc(Nc1ccc(OC(F)(F)F)cc1)n2[C@@H]1C[C@H](C)CC(C)(C)C1 (stereo in doubt) [Example 2-7] | 5.92 | 6.96 |
| Cc1cc2c(cc1-c1cc(O)no1)nc(Nc1ccc(OC(F)(F)F)cc1)n2C1CC(C)(C)CC(C)(C)C1 [Example 2-37, 5-[6-methyl-1-(3,3,5,5-tetramethylcyclohexyl)-2-{[4-(trifluoromethoxy)phenyl]amino}-1H-benzimidazol-5-yl]-1,2-oxazol-3-ol] | 6.60 | 7.52 |
| Cc1n[nH]c(C)c1-c1ccc2c(c1)nc(Nc1ccc(OC(F)(F)F)cc1)n2[C@@H]1C[C@H](C)CC(C)(C)C1 (stereo in doubt) [Example 2-5] | 5.40 | 7.05 |
| Cc1n[nH]c(C)c1-c1ccc2c(c1)nc(Nc1ccc(SC(F)(F)F)cc1)n2[C@@H]1C[C@H](C)CC(C)(C)C1 (stereo in doubt) [Example 2-10] | 5.70 | 6.85 |
| Cc1nnc(-c2cc3nc(Nc4ccc(OC(F)(F)F)cc4)n(C4CC(C)(C)CC(C)(C)C4)c3cc2C)[nH]1 [Example 2-30, 6-methyl-5-(5-methyl-4H-1,2,4-triazol-3-yl)-1-(3,3,5,5-tetramethylcyclohexyl)-N-[4-(trifluoromethoxy)phenyl]-1H-benzimidazol-2-amine] | 5.82 | 6.92 |
| Cc1cc2c(cc1C1OC(=O)NC1=O)nc(Nc1ccc(OC(F)(F)F)cc1)n2C1CC(C)(C)CC(C)(C)C1 (centres unmarked) [Example 2-36, 5-[6-methyl-1-(3,3,5,5-tetramethylcyclohexyl)-2-{[4-(trifluoromethoxy)phenyl]amino}-1H-benzimidazol-5-yl]-1,3-oxazolidine-2,4-dione] | 7.66 | 7.85 |
| C[C@H]1C[C@@H](n2c(Nc3ccc(OC(F)(F)F)cc3)nc3cc(-c4cccc(C(N)=O)c4)ccc32)CC(C)(C)C1 (stereo in doubt) [Example 2-11] | 5.55 | 6.68 |
| Cc1n[nH]c(C)c1-c1ccc2c(c1)nc(Nc1ccc(SC(F)(F)F)cc1)n2[C@@H]1C[C@H](C)CC(C)(C)C1 (stereo in doubt) [Example 2-10-1] | 5.00 | 6.52 |
| Cc1cc2c(cc1-c1c(C)n[nH]c1C)nc(Nc1ccc(OC(F)(F)F)cc1)n2C1CC(C)(C)CC(C)(C)C1 [Example 2-29, 5-(3,5-dimethyl-1H-pyrazol-4-yl)-6-methyl-1-(3,3,5,5-tetramethylcyclohexyl)-N-[4-(trifluoromethoxy)phenyl]-1H-benzimidazol-2-amine] | 5.57 | 5.40 |
